Assays:
rats [1] = assay: Early ischemic myocardial arrhythmias after coronary artery ligation; type: in vivo; conditions: 0.5 mg/kg i.v.; 30 min after coronary occlusion
Method: White random-bred male rats weighing 200 g were given light ether anesthesia and were then immobilized and artificially ventilated. The descending branch of the left coronary artery of each rat was ligated. Immediately following ligation, a test or control substance was administered to each rat through the catheterized femoral vein, and an ECG recording was initiated (standard lead II) and maintained for the next 30 minutes.
GE and VT served as test substances and were administered to animals in the respective test groups at doses of 0.1, 1.0, and 10.0 mg/kg. The β-adrenergic blocking agent, propranolol (Obzidan, Germed, Germany), served as the positive control substance and was administered intravenously to each animal in the positive control group at a dose of 0.5 mg/kg. Physiological saline served as the negative control substance and was administered intravenously to animals in the negative control group. Each dose of each test or control substance was tested separately on a group of nine animals.
The following parameters were evaluated based upon the ECG recordings: (i) the number of ventricular extrasystoles that occurred within a 30-minute observation period following coronary occlusion; (ii) the overall cumulative duration of ventricular tachycardias (i.e., the summation of duration of individual paroxysmal ventricular rhythm disturbances in seconds) occurring within the 30-minute observation period; and (iii) the overall duration (in seconds) of the ventricular fibrillations occurring within the 30-minute observation period. The data were processed electronically and statistical comparisons were made between the values obtained from the animals in the experimental test groups and those in the different respective control groups.

rats [2] = assay: CPK activity in blood serum 1 hour after coronary occlusion; type: in vivo; conditions: dose printed --; i.v.; 1 hour after coronary occlusion
Method: White random-bred male rats weighing approximately 200 g were anesthetized using a light ether administration and then immobilized and artificially ventilated. […] Immediately after ligation, a test substance, positive, control substance, or negative control substance (described below) was administered to a rat through a catheterized femoral vein. Each dose of each test substance or positive or negative control substance was administered to an experimental or control group of 9 test rats. In this study, GE and VT served as test substances, propranolol served as the positive control substance, and physiological saline served as the negative control substance. Each test rat in an experimental group was given a dose of either 0.1, 1.0, or 10.0 milligram GE per kilogram of body weight of the subject animal (mg/kg) or 0.1, 1.0, or 10.0 milligram VT per kilogram of body weight of the animal. Each animal of the positive control group received an intravenous dose of 0.5 mg of β-adrenergic blocking agent, propranolol (Obzidan, Germed, Germany) per kilogram of body weight. Propranolol is commonly used to manage cardiac arrhythmia and there is some evidence that the agent may reduce the extent of ischemic damage to the heart. […] Each animal of the negative control group received physiological saline.
One hour after initiation of the coronary artery occlusion, each test animal was sacrificed, its blood was collected, and the CPK activity in its blood serum was measured. CPK activity was determined by using a standard biochemical method, such as that commercially available from the Lachema Company (Czechia) in its test kit, and by following the manufacturer's process instructions included in the package insert.
As a supplementary control for the possible trauma caused by the surgical procedure, a group of 9 sham-operated rats was included in the study. These test animals were subjected to chest dissection, but not to coronary artery occlusion. These "sham-operated" animals were not treated with any test or control substances and were euthanized 1 hour after surgery. Their blood was then collected for determination of CPK activity.

Q: `CC(C)NCC(O)COc1cccc2ccccc12` (stereo not drawn) [Propranolol, propranolol, reference compound] was tested. Which “Number of Ventricular Extrasystoles” value (rats [1]) did it give?
A: 61.22

Q: And the “Overall Duration of Ventricular Tachycardia” value (rats [1])?
A: 56.74 s

Q: And the “CPK Activity in blood serum” value (rats [2])?
A: 0.170 (±0.011) mcCat/L
